11 compounds from ChEMBL document CHEMBL3044896, “A facile route for the synthesis 1,4-disubstituted tetrazolone derivatives and evaluation of their antimicrobial activity” (2013) can be followed below.

For the first assay, the system named is Candida albicans. Put plainly: Antifungal activity against Candida albicans at 30 ug/ml after 48 hr by agar well diffusion method. The format is functional. The note with it: read-out: IZ. In general terms: In agar diffusion tests the substance spreads into inoculated agar from a disc or well.
`CCC(C)n1ncn(-c2ccc(N3CCN(c4ccc(OCC5COC(Cn6cncn6)(c6ccc(Cl)cc6Cl)O5)cc4)CC3)cc2)c1=O` (configuration not stated) [ITRACONAZOLE]: the zone of inhibition at 30 µg/mL amounted to 20 mm.

For a further assay, the system named is Aspergillus niger. Put plainly: Antifungal activity against Aspergillus niger at 30 ug/ml after 48 hr by agar well diffusion method. Format: functional. The note with it: read-out: IZ.
For the compound `CCC(C)n1ncn(-c2ccc(N3CCN(c4ccc(OCC5COC(Cn6cncn6)(c6ccc(Cl)cc6Cl)O5)cc4)CC3)cc2)c1=O` (configuration not stated) [ITRACONAZOLE], the zone of inhibition at 30 µg/mL turned out to be 17 mm.

For a further assay, the system named is Klebsiella aerogenes. Put plainly: Antibacterial activity against Enterobacter aerogenes NCIM 5139 at 40 ug/ml after 18 to 24 hr by agar well diffusion method. Format: functional. As to conditions: read-out: IZ.
In the case of `O=C(O)c1cn(C2CC2)c2cc(N3CCNCC3)c(F)cc2c1=O` [CIPROFLOXACIN], the zone of inhibition at 40 µg/mL is 24 mm.

In the next assay the test system is Candida albicans. Kind of assay: Antifungal activity against Candida albicans at 100 ug/ml after 48 hr by agar well diffusion method. The format is functional. As to conditions: read-out: IZ.
On to `COC(=O)/C(=C/c1ccc([N+](=O)[O-])cc1)Cn1nnn(-c2ccc(C(F)(F)F)cc2)c1=O`, for which the zone of inhibition at 100 µg/mL is 12 mm.
Same read-out and setting: for `COC(=O)/C(=C/c1ccc(OC)cc1)Cn1nnn(-c2ccc(OC)cc2)c1=O` the value was 17 mm; for `COc1ccc(-n2nnn(C/C(C#N)=C/c3ccccc3)c2=O)cc1`, 9 mm; for `N#C/C(=C\c1ccccc1)Cn1nnn(-c2ccc(C(F)(F)F)cc2)c1=O`, 15 mm.
Still for that read-out and setting: the same measure for `Cc1ccc(/C=C(\C#N)Cn2nnn(-c3ccccc3)c2=O)cc1`: 7 mm; for `COc1ccc(-n2nnn(C/C(C#N)=C/c3ccc(C)cc3)c2=O)cc1`: 19 mm; for `COc1ccc(/C=C(\C#N)Cn2nnn(-c3ccc(OC)cc3)c2=O)cc1`: 16 mm.
On the same count and under the same terms, the same measure for `COc1ccc(/C=C(\C#N)Cn2nnn(-c3ccc(C(F)(F)F)cc3)c2=O)cc1`: 16 mm.
For the compound `COc1ccc(-n2nnn(C/C(C#N)=C/c3ccc(OC)c(OC)c3)c2=O)cc1`, the zone of inhibition at 100 µg/mL stood at 4 mm.

The subject of another assay is Aspergillus niger. Put plainly: Antifungal activity against Aspergillus niger at 100 ug/ml after 48 hr by agar well diffusion method. The format is functional. As to conditions: read-out: IZ.
As for `COC(=O)/C(=C/c1ccc([N+](=O)[O-])cc1)Cn1nnn(-c2ccc(C(F)(F)F)cc2)c1=O`, the zone of inhibition at 100 µg/mL is 11 mm.
In the case of `COC(=O)/C(=C/c1ccc(OC)cc1)Cn1nnn(-c2ccc(OC)cc2)c1=O`, the zone of inhibition at 100 µg/mL stood at 16 mm.
Take `COc1ccc(-n2nnn(C/C(C#N)=C/c3ccccc3)c2=O)cc1`: the zone of inhibition at 100 µg/mL was 6 mm.
For `N#C/C(=C\c1ccccc1)Cn1nnn(-c2ccc(C(F)(F)F)cc2)c1=O`, the zone of inhibition at 100 µg/mL is 16 mm.
As for `Cc1ccc(/C=C(\C#N)Cn2nnn(-c3ccccc3)c2=O)cc1`, the zone of inhibition at 100 µg/mL stood at 4 mm.
Still for that read-out and setting: for `COc1ccc(-n2nnn(C/C(C#N)=C/c3ccc(C)cc3)c2=O)cc1` the value was 15 mm.
The same measure, in the same setting: for `COc1ccc(/C=C(\C#N)Cn2nnn(-c3ccc(OC)cc3)c2=O)cc1` the value was 14 mm; for `COc1ccc(/C=C(\C#N)Cn2nnn(-c3ccc(C(F)(F)F)cc3)c2=O)cc1`, 11 mm.

The next assay deals with Klebsiella aerogenes. Kind of assay: Antibacterial activity against Enterobacter aerogenes NCIM 5139 at 100 ug/ml after 18 to 24 hr by agar well diffusion method. Format: functional. As to conditions: read-out: IZ.
Turning to `COC(=O)/C(=C/c1ccc([N+](=O)[O-])cc1)Cn1nnn(-c2ccc(C(F)(F)F)cc2)c1=O`, the zone of inhibition at 100 µg/mL was 8 mm.
In the case of `COc1ccc(-n2nnn(C/C(C#N)=C/c3ccccc3)c2=O)cc1`, the zone of inhibition at 100 µg/mL came to 11 mm.
As for `N#C/C(=C\c1ccccc1)Cn1nnn(-c2ccc(C(F)(F)F)cc2)c1=O`, the zone of inhibition at 100 µg/mL was 19 mm.
Take `Cc1ccc(/C=C(\C#N)Cn2nnn(-c3ccccc3)c2=O)cc1`: the zone of inhibition at 100 µg/mL came to 14 mm.
For `COc1ccc(-n2nnn(C/C(C#N)=C/c3ccc(C)cc3)c2=O)cc1`, the zone of inhibition at 100 µg/mL is 16 mm.
The same measure, in the same setting: for `COc1ccc(/C=C(\C#N)Cn2nnn(-c3ccc(OC)cc3)c2=O)cc1` the value was 19 mm; for `COc1ccc(/C=C(\C#N)Cn2nnn(-c3ccc(C(F)(F)F)cc3)c2=O)cc1`, 12 mm; for `COc1ccc(-n2nnn(C/C(C#N)=C/c3ccc(OC)c(OC)c3)c2=O)cc1`, 16 mm.

Another assay has as its system Escherichia coli. Put plainly: Antibacterial activity against Escherichia coli ATCC 2343 at 100 ug/ml after 18 to 24 hr by agar well diffusion method. As to conditions: read-out: IZ. The format is functional.
Take `COC(=O)/C(=C/c1ccc([N+](=O)[O-])cc1)Cn1nnn(-c2ccc(C(F)(F)F)cc2)c1=O`: the zone of inhibition at 100 µg/mL amounted to 6 mm.
With `COc1ccc(-n2nnn(C/C(C#N)=C/c3ccccc3)c2=O)cc1`, the zone of inhibition at 100 µg/mL was found to be 7 mm.
Consider `N#C/C(=C\c1ccccc1)Cn1nnn(-c2ccc(C(F)(F)F)cc2)c1=O`, for which the zone of inhibition at 100 µg/mL is 9 mm.
Same read-out and setting: for `Cc1ccc(/C=C(\C#N)Cn2nnn(-c3ccccc3)c2=O)cc1` the value was 8 mm.
The same measure, in the same setting: for `COc1ccc(-n2nnn(C/C(C#N)=C/c3ccc(C)cc3)c2=O)cc1` the value was 14 mm; for `COc1ccc(/C=C(\C#N)Cn2nnn(-c3ccc(OC)cc3)c2=O)cc1`, 14 mm.
For `COc1ccc(/C=C(\C#N)Cn2nnn(-c3ccc(C(F)(F)F)cc3)c2=O)cc1`, the zone of inhibition at 100 µg/mL came to 5 mm.
On the same count and under the same terms, the same measure for `COc1ccc(-n2nnn(C/C(C#N)=C/c3ccc(OC)c(OC)c3)c2=O)cc1`: 7 mm.

The subject of a further assay is Staphylococcus aureus. Put plainly: Antibacterial activity against Staphylococcus aureus ATCC 29737 at 100 ug/ml after 18 to 24 hr by agar well diffusion method. As to conditions: read-out: IZ. Format: functional.
With `COC(=O)/C(=C/c1ccc([N+](=O)[O-])cc1)Cn1nnn(-c2ccc(C(F)(F)F)cc2)c1=O`, the zone of inhibition at 100 µg/mL amounted to 12 mm.
For the compound `COC(=O)/C(=C/c1ccc(OC)cc1)Cn1nnn(-c2ccc(OC)cc2)c1=O`, the zone of inhibition at 100 µg/mL was 17 mm.
On to `COc1ccc(-n2nnn(C/C(C#N)=C/c3ccccc3)c2=O)cc1`, for which the zone of inhibition at 100 µg/mL was determined as 17 mm.
`N#C/C(=C\c1ccccc1)Cn1nnn(-c2ccc(C(F)(F)F)cc2)c1=O`: the zone of inhibition at 100 µg/mL is 22 mm.
Same read-out and setting: the same measure for `Cc1ccc(/C=C(\C#N)Cn2nnn(-c3ccccc3)c2=O)cc1`: 17 mm; for `COc1ccc(-n2nnn(C/C(C#N)=C/c3ccc(C)cc3)c2=O)cc1`: 19 mm; for `COc1ccc(/C=C(\C#N)Cn2nnn(-c3ccc(OC)cc3)c2=O)cc1`: 21 mm.
`COc1ccc(/C=C(\C#N)Cn2nnn(-c3ccc(C(F)(F)F)cc3)c2=O)cc1`: the zone of inhibition at 100 µg/mL was found to be 16 mm.
Still for that read-out and setting: the same measure for `COc1ccc(-n2nnn(C/C(C#N)=C/c3ccc(OC)c(OC)c3)c2=O)cc1`: 21 mm.

The next assay relates to Bacillus subtilis. Kind of assay: Antibacterial activity against Bacillus subtilis ATCC 6633 at 100 ug/ml after 18 to 24 hr by agar well diffusion method. The format is functional. The note with it: read-out: IZ.
Regarding `COC(=O)/C(=C/c1ccc([N+](=O)[O-])cc1)Cn1nnn(-c2ccc(C(F)(F)F)cc2)c1=O`, the zone of inhibition at 100 µg/mL came to 10 mm.
The same measure, in the same setting: for `COC(=O)/C(=C/c1ccc(OC)cc1)Cn1nnn(-c2ccc(OC)cc2)c1=O` the value was 16 mm.
For the compound `COc1ccc(-n2nnn(C/C(C#N)=C/c3ccccc3)c2=O)cc1`, the zone of inhibition at 100 µg/mL was 12 mm.
As for `N#C/C(=C\c1ccccc1)Cn1nnn(-c2ccc(C(F)(F)F)cc2)c1=O`, the zone of inhibition at 100 µg/mL turned out to be 23 mm.
On to `Cc1ccc(/C=C(\C#N)Cn2nnn(-c3ccccc3)c2=O)cc1`, for which the zone of inhibition at 100 µg/mL was 16 mm.
The same measure, in the same setting: for `COc1ccc(-n2nnn(C/C(C#N)=C/c3ccc(C)cc3)c2=O)cc1` the value was 16 mm.
In the case of `COc1ccc(/C=C(\C#N)Cn2nnn(-c3ccc(OC)cc3)c2=O)cc1`, the zone of inhibition at 100 µg/mL worked out at 18 mm.
The same measure, in the same setting: for `COc1ccc(/C=C(\C#N)Cn2nnn(-c3ccc(C(F)(F)F)cc3)c2=O)cc1` the value was 11 mm; for `COc1ccc(-n2nnn(C/C(C#N)=C/c3ccc(OC)c(OC)c3)c2=O)cc1`, 11 mm.

The subject of a further assay is Staphylococcus aureus. Put plainly: microbe, parasite or virus in culture. The note with it: ATCC 29737, read-out: IZ.
Description: Antibacterial activity against Staphylococcus aureus ATCC 29737 at 40 ug/ml after 18 to 24 hr by agar well diffusion method
Regarding `O=C(O)c1cn(C2CC2)c2cc(N3CCNCC3)c(F)cc2c1=O` [CIPROFLOXACIN], the zone of inhibition at 40 µg/mL is 22 mm.

In the next assay the test system is Escherichia coli. Kind of assay: microbe, parasite or virus in culture. The note with it: ATCC 2343, read-out: IZ.
Description: Antibacterial activity against Escherichia coli ATCC 2343 at 40 ug/ml after 18 to 24 hr by agar well diffusion method
On to `O=C(O)c1cn(C2CC2)c2cc(N3CCNCC3)c(F)cc2c1=O` [CIPROFLOXACIN], for which the zone of inhibition at 40 µg/mL worked out at 18 mm.

The next assay concerns Bacillus subtilis. Put plainly: microbe, parasite or virus in culture. The note with it: ATCC 6633, read-out: IZ.
Description: Antibacterial activity against Bacillus subtilis ATCC 6633 at 40 ug/ml after 18 to 24 hr by agar well diffusion method
Turning to `O=C(O)c1cn(C2CC2)c2cc(N3CCNCC3)c(F)cc2c1=O` [CIPROFLOXACIN], the zone of inhibition at 40 µg/mL was 10 mm.
